Experimental data: patent US20170000702A1, “PERSONAL CARE COMPOSITIONS COMPRISING A SENSATE” (The Gillette Park, priority 2015, published 2017)
Where two headings read alike, the source gives them in different places.

Tests used:
human TRPA1 [1] = target: T1, human TRPA1 (Homo sapiens, UniProt O75762); experiment: Direct Addition Test Method, TRPA1 (FLIPR intracellular calcium); format: cell-based
T1 construct: expressed in transfected cells; host or cells: HEK-293
Protocol: (§1) The Pre-Incubation Test and Direct Addition Test Methods, as defined herein, can be conducted on either TRPV1 or TRPA1 receptors.
(§2) Pre-Incubation Test Method: First, the intracellular calcium ion (Ca^+2) levels in TRPV1 and TRPA1 receptors is measured. […] Cells are detached with addition of 10 ml of PBS (phosphate buffered saline) by hand shaking gently. Cells are transferred to a 50 ml tube and centrifuged at 850 rpm for 3 minutes to remove PBS. After centrifugation, a pellet of cells is formed in the bottom of the tube separating them from the supernatant solution. […] Fluo-4 is a fluorescent dye used for quantifying cellular Ca^2+ concentrations in the 100 nM to 1 microM range. At the end of the 30 minutes, 45 ml of assay buffer [1× HBSS (Hank's Balanced Salt Solution), 20 mM HEPES (4-(2-Hydroxyethyl)-1-piperazineethanesulfonic acid)] is added to wash cells and the resulting combination is then centrifuged at 850 rpm for 3 minutes to remove excess buffer and Fluo-4 AM calcium indicator.
(§3) The pellet cells are re-suspended in 10 ml assay buffer and 90 μl aliquots (˜50,000 cells) per well delivered to a 96-well assay plate containing 10 μl of test compounds (1 mM in assay buffer, final concentration 100 μM) or buffer control and incubated at room temperature for 30 minutes. […] The FLIPR assay is an accepted method for detecting changes in intracellular calcium concentration. Then 20 μl of the activators [1.8 μM Capsaicin (final concentration 300 nM) for TRPV1 or 300 μM AITC (final concentration 50 μM) for TRPA1 is added by FLIPR automatically and fluorescence recorded immediately.
(§4) Direct Addition Test Method (for determining the direct effect of test compounds on TRPV1 and TRPA1): All procedures are same as the pre-incubation test except 10 μl assay buffer instead of 10 μl test compounds in the 96-well assay plates. The fluorescence is measured immediately after addition of 20 μl of 600 μM each compound (final concentration 100 μM). The 20 μl of activator (capsaicin or AITC) is as the positive control. The percentage of up-regulation or down-regulation is calculated based on the fluorescence measurement.

human TRPV1 [2] = target: T2, human TRPV1 (Homo sapiens, UniProt Q8NER1); experiment: Pre-Incubation Test Method, TRPV1 (FLIPR intracellular calcium, capsaicin activator); format: cell-based
T2 construct: expressed in transfected cells; host or cells: HEK-293
T2 sequence (Q8NER1 whole entry): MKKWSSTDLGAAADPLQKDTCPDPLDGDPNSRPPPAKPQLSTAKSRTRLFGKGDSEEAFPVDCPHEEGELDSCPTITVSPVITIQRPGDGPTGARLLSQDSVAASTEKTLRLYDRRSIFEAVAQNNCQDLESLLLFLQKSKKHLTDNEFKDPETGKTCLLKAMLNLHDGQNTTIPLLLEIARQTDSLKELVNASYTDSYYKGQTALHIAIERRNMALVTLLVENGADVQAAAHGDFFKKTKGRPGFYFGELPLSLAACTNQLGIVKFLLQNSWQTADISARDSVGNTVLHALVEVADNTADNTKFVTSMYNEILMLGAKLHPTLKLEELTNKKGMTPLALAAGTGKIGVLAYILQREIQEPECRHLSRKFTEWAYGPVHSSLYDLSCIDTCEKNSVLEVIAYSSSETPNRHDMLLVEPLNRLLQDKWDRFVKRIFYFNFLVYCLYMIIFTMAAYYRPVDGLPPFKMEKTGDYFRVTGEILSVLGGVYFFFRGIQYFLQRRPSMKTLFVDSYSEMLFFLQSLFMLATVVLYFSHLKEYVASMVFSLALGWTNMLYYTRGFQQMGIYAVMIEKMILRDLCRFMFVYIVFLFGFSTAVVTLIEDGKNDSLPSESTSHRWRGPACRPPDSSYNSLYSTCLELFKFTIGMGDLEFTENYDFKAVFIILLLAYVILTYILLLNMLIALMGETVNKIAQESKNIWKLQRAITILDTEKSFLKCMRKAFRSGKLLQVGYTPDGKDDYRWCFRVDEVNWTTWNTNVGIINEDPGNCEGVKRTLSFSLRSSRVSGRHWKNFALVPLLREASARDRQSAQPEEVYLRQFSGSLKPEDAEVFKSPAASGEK
Protocol: as §1, §2, §3

[3] = In use irritation Test 1 (single variable shave test with panelists); format: in vivo; settings: control 6.3
Protocol: 10. In Use Irritation Data: • In use irritation Test 1: Five samples are produced with the following formulation. Samples are tested with panelists in a single variable shave test with only the addition and level of sensate being varied. Respondents provide average irritation ratings summarized below. • Testing formula: […]

human TRPA1 [4] = target: T1, human TRPA1; experiment: Pre-Incubation Test Method, TRPA1 (FLIPR intracellular calcium, AITC activator); format: cell-based
Protocol: as §1, §2, §3

human TRPV1 [5] = target: T2, human TRPV1; experiment: Direct Addition Test Method, TRPV1 (FLIPR intracellular calcium); format: cell-based
Protocol: as §1, §2, §3, §4

[6] = In use irritation Test 2 (single variable shave test with panelists); format: in vivo; settings: control 5.60
Protocol: • In use irritation Test 2: Five samples are produced with the same blank testing formulation as in Test 1, above. Samples are tested with panelists in a single variable shave test with only the addition and level of sensate being varied.

[7] = TRPA1, HEK-293 cells, compound final concentration 100 μM, no pre-incubation, AITC as positive control
[8] = TRPV1, HEK-293 cells, test compound final concentration 100 μM, 30 minutes pre-incubation, activator Capsaicin 300 nM
[9] = TRPA1, HEK-293 cells, test compound final concentration 100 μM, 30 minutes pre-incubation, activator AITC 50 μM
[10] = TRPV1, HEK-293 cells, compound final concentration 100 μM, no pre-incubation, capsaicin as positive control
[11] = sensate added to control formula at 0.2%

T1 sequence (O75762 whole entry): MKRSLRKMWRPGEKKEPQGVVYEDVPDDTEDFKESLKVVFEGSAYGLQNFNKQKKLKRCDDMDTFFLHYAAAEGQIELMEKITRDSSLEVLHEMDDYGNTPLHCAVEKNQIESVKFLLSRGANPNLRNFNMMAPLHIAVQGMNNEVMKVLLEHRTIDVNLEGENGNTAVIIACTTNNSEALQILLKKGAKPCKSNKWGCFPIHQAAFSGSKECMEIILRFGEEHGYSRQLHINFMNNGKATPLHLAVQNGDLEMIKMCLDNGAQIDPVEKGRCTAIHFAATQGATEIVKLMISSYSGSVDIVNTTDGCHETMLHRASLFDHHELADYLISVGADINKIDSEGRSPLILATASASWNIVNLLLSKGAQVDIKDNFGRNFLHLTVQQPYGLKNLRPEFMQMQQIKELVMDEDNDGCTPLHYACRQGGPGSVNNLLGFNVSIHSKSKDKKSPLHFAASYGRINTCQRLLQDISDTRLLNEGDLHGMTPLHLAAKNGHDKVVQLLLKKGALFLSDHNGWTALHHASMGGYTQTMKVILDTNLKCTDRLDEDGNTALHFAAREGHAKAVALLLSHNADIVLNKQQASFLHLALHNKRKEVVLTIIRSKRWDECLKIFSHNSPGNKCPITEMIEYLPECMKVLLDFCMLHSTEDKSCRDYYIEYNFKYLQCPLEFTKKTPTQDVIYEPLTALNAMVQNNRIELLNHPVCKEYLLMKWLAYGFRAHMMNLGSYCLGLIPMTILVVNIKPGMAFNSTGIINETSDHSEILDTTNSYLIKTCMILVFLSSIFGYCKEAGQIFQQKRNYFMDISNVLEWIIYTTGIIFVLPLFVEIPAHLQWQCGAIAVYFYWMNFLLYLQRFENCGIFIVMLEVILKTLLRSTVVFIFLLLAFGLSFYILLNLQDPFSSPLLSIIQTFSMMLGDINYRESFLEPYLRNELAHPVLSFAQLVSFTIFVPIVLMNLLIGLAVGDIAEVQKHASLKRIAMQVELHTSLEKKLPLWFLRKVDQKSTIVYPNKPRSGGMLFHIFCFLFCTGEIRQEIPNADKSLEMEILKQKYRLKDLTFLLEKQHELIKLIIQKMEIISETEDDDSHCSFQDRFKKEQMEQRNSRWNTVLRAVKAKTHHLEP

Row | SMILES | Direct Addition % Regulation (human TRPA1 [1]; [7]) [%] | Pre-incubation % Regulation (human TRPV1 [2]; [8]) [%] | Pre-incubation % Regulation (human TRPA1 [4]; [9]) [%] | Direct Addition % Regulation (human TRPV1 [5]; [10]) [%] | further results
1 | OCc1ccccc1 [Benzyl Alcohol, benzyl alcohol] | 21.39 | 51.18 | 14.61 | −2.09 | Avg Irritation Score ([3]; sensate added to control formula at 1%): 4.8
2 | Cc1cc(O)ccc1Cl [4-chloro-3-methylphenol] | 319.54 | 47.49 | −0.43 | 292.92 | Avg Irritation Score [3, 11]: 4.3
3 | Cc1cc(O)cc(C)c1Cl [Chloroxylenol, chloroxylenol] | 381.06 | 37.52 | −0.08 | 326.69 | Avg Irritation Score [3, 11]: 5.2
4 | C=C1CCC(C)C(C)(C)C1/C=C/C(C)=O (stereo not shown) | 4.96 | 22.16 | 23.55 | 5.24 | Avg Irritation Score ([6]; sensate at 0.1% in control formulation): 5.40
5 | CC(=O)CCC=C(C)C [6-Methyl-5-hepten-2-one, 6-methyl-5-hepten-2-one] | – | – | – | – | Avg Irritation Score ([3]; sensate added to control formula at 0.15%): 6.0
6 | CC(=O)[O][Zn][O]C(C)=O [Zinc Acetate, zinc acetate] | – | – | – | – | Direct Addition % Regulation (human TRPA1 [1]): −0.66%; Pre-incubation % Regulation (human TRPV1 [2]): 35.2%; Avg Irritation Score ([6]; sensate at 0.03% in control formulation): 4.55; Pre-incubation % Regulation (human TRPA1 [4]): 21.67%; Direct Addition % Regulation (human TRPV1 [5]): 0.88%
7 | CC(C)C(=O)OCCOc1ccccc1 [Phenoxyethyl Isobutyrate, phenoxyethyl isobutyrate] | −7.84 | 41.34 | 36.8 | −6.84 | Avg Irritation Score ([6]; sensate at 0.13% in control formulation): 4.45
